This note sets out measurements from patent US20100280024A1, “RENIN INHIBITORS” (priority 2007, published 2010).

The structures appear in SMILES notation. Structures can show the parent of a compound that is named as a salt.

The assay has as its target T1, Renin (Homo sapiens, UniProt P00797).
T1 sequence (P00797 67-406): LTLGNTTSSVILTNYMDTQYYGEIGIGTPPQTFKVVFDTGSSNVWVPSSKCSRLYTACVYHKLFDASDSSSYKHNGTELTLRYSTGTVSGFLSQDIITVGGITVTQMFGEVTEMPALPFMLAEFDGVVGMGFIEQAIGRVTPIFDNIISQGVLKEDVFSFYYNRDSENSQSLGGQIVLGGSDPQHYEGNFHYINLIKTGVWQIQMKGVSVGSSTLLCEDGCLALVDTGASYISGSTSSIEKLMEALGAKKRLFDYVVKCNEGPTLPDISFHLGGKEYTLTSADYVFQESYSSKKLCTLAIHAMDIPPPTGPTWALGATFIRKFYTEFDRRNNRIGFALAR
Kind of assay: In-vitro renin inhibition assay (modified Cayman renin inhibitor screening assay, fluorescence). As to conditions: 37° C., 30 mins; for inhibition at 0.1 µM: read-out: Renin inhibition (percent inhibition of renin activity) at 0.1 μM; for inhibition at 1 µM: compound concentration 1 μM, read-out: Renin inhibition (percent inhibition of renin activity) at 1 μM. Also noted: purchased Cayman 10006270. It is filed as biochemical. As for the experimental part:
In-Vitro Renin Inhibition Assay
The enzymatic in vitro assay was performed in 96 well polypropylene plate (Nunc), using a modified Renin inhibitor screening assay protocol (Cayman, cat no: 10006270). The reaction system comprised assay buffer containing 50 mM Tris-HCL, pH=8.0 & 100 mM sodium chloride, human recombinant renin (1:20 diluted with fixed activity), synthetic renin substrates (9.5 μM) and different concentrations of renin inhibitors in DMSO in a total reaction system of 100 μl. The entire incubation mixture were incubated at 37° C. for 30 mins and the fluorescence was read in kinetic mode using excitation wavelengths of 335-345 nm and emission wavelengths of 485-510 nm. Enzyme inhibition was determined by percent inhibition of renin activity.

For orientation: inhibition means how much of the control response was suppressed. On to `CC(C)(C)c1ccc2c(c1)CCCN2C(=O)C(CN)Cc1ccc(OCCOc2c(Cl)cccc2Cl)cc1` (stereo not shown) [Example 53, 3-Amino-1-(6-tert-butyl-3,4-dihydro-2H-quinolin-1-yl)-2-{4-[2-(2,6-dichloro-phenoxy)-ethoxy]-benzyl}-propan-1-one hydrochloride], for which the inhibition at 0.1 µM (compound concentration 0.1 μM) is 93.1%.

Take `NCC(Cc1ccc(OCCOc2ccc(Cl)cc2F)cc1)C(=O)N1CCCc2cc(C(F)(F)F)ccc21` (stereo not shown) [Example 40, 3-Amino-2-{4-[2-(4-chloro-2-fluoro-phenoxy)-ethoxy]-benzyl}-1-(6-trifluoromethyl-3,4-dihydro-2H-quinolin-1-yl)-propan-1-one hydrochloride]: the inhibition at 0.1 µM (compound concentration 0.1 μM) was 38.9%.

For the compound `COc1ccccc1COCCCOc1ccc(CC(CN)C(=O)N2CCCc3cc(C(F)(F)F)ccc32)cc1` (stereo not shown) [Example 47, 3-Amino-2-{4-[3-(2-methoxy-benzyloxy)-propoxy]-benzyl}-1-(6-trifluoromethyl-3,4-dihydro-2H-quinolin-1-yl)-propan-1-one], the inhibition at 0.1 µM (compound concentration 0.1 μM) was 43.1%.

Regarding `NCC(Cc1ccc(OCCOc2c(F)cccc2F)cc1)C(=O)N1CCCc2cc(C(F)(F)F)ccc21` (stereo not shown) [Example 34, 3-Amino-2-{4-[2-(2,6-difluoro-phenoxy)-ethoxy]-benzyl}-1-(6-trifluoromethyl-3,4-dihydro-2H-quinolin-1-yl)-propan-1-one hydrochloride], the inhibition at 0.1 µM (compound concentration 0.1 μM) was 31.2%.

With `Cc1cc(Cl)c(OCCOc2ccc(CC(CN)C(=O)N3CCCc4cc(F)ccc43)cc2)c(Cl)c1` (stereo not shown) [Example 20, 3-Amino-2-{4-[2-(2,6-dichloro-4-methyl-phenoxy)-ethoxy]-benzyl}-1-(6-fluoro-3,4-dihydro-2H-quinolin-1-yl)-propan-1-one], the inhibition at 1 µM is 96.1%. The inhibition at 0.1 µM (compound concentration 0.1 μM) is 68%.

Take `Cc1cc(Cl)c(OCCOc2ccc(CC(CN)C(=O)N3CCCc4cc(C(F)(F)F)ccc43)cc2)c(Cl)c1` (stereo not shown) [Example 15, 3-Amino-2-{4-[2-(2,6-dichloro-4-methyl-phenoxy)-ethoxy]-benzyl}-1-(6-trifluoromethyl-3,4-dihydro-2H -quinolin-1-yl)-propan-1-one]: the inhibition at 1 µM was 98.7%. The inhibition at 0.1 µM (compound concentration 0.1 μM) stood at 99.2%.

For `Cc1cc(Cl)c(OCCOc2ccc(CC(CN)C(=O)N3CCCCC3)cn2)c(Cl)c1` (stereo not shown) [Example 42, 2-Aminomethyl-3-{6-[2-(2,6-dichloro-4-methyl-phenoxy)-ethoxy]-pyridin-3-yl}-1-piperidin-1-yl-propan-1-one], the inhibition at 1 µM turned out to be 82.5%. The inhibition at 0.1 µM (compound concentration 0.1 μM) worked out at 71%.

In the case of `NCC(Cc1ccc(OCCOc2ccc(Cl)cc2Cl)cc1)C(=O)N1CCCc2cc(C(F)(F)F)ccc21` (stereo not shown) [Example 38, 3-Amino-2-{4-[2-(2,4-dichloro-phenoxy)-ethoxy]-benzyl}-1-(6-trifluoromethyl-3,4-dihydro-2H-quinolin-1-yl)-propan-1-one hydrochloride chloride], the inhibition at 0.1 µM (compound concentration 0.1 μM) stood at 35.4%.

For the compound `Cc1cc(Cl)c(OCCOc2ccc(CC(CN)C(=O)N3CCCc4ccc(C)c(C)c43)cc2)c(Cl)c1` (stereo not shown) [Example 9, 3-Amino-2-{4-[2-(2,6-dichloro-4-methyl-phenoxy)-ethoxy]-benzyl}-1-(7,8-dimethyl-3,4-dihydro-2H-quinolin-1-yl)-propan-1-one], the inhibition at 1 µM came to 98.1%. The inhibition at 0.1 µM (compound concentration 0.1 μM) was determined as 80.5%.

Consider `Cc1cc(Cl)c(OCCOc2ccc(CC(CN)C(=O)N3CCCc4ccccc43)cn2)c(Cl)c1` (stereo not shown) [Example 43, 2-Aminomethyl-3-{6-[2-(2,6-dichloro-4-methyl-phenoxy)-ethoxy]-pyridin-3-yl}-1-(3,4-dihydro-2H-quinolin-1-yl)-propan-1-one], for which the inhibition at 1 µM is 64.2%.

Consider `Cc1cc(Cl)c(OCCOc2ccc(CC(CN)C(=O)N3CCCc4cc(Cl)cc(Cl)c43)cc2)c(Cl)c1` (stereo not shown) [Example 14, 3-Amino-1-(6,8-dichloro-3,4-dihydro-2H-quinolin-1-yl)-2-{4-[2-(2,6-dichloro-4-methyl-phenoxy)-ethoxy]-benzyl}-propan-1-one], for which the inhibition at 1 µM was found to be 87%. Further, the inhibition at 0.1 µM (compound concentration 0.1 μM) is 41.8%.

For the compound `COC(=O)[C@H]1CCCN1C(=O)C(CN)Cc1ccc(OCCOc2c(Cl)cc(C)cc2Cl)cc1.Cl` (stereo partly drawn) [Example 29, D-(2-Aminomethyl-3-{4-[2-(2,6-dichloro-4-methyl-phenoxy)-ethoxy]-phenyl}-propionyl)-pyrrolidine-2-carboxylic acid methyl ester hydrochloride], where the note is “compound concentration 0.1 μM”, the “Renin inhibition (percent inhibition of renin activity) at 0.1 μM” value amounted to 90.3.

On to `Cc1cc(Cl)c(OCCOc2ccc(CC(CN)C(=O)N3CCCc4cc(C(F)(F)F)ccc43)cn2)c(Cl)c1` (stereo not shown) [Example 41, 3-Amino-2-{6-[2-(2,6-dichloro-4-methyl-phenoxy)-ethoxy]-pyridin-3-ylmethyl}-1-(6-trifluoromethyl-3,4-dihydro-2H-quinolin-1-yl)-propan-1-one], for which the inhibition at 1 µM was found to be 98.6%. Moreover, the inhibition at 0.1 µM (compound concentration 0.1 μM) turned out to be 80.1%.

As for `COC1CCCN(C(=O)C(CN)Cc2ccc(OCCOc3c(Cl)cc(C)cc3Cl)cc2)C1` (stereo not shown) [Example 30, 2-Aminomethyl-3-{4-[2-(2,6-dichloro-4-methyl-phenoxy)-ethoxy]-phenyl}-1-(3-methoxy-piperidin-1-yl)-propan-1-one hydrochloride], the inhibition at 1 µM came to 92.9%. Further, the inhibition at 0.1 µM (compound concentration 0.1 μM) turned out to be 92.8%.

As for `Cc1cc(Cl)c(OCCOc2ccc(CC(CN)C(=O)N3CCOc4ccccc43)cc2)c(Cl)c1` (stereo not shown) [Example 4, 3-Amino-2-{4-[2-(2,6-dichloro-4-methyl-phenoxy)-ethoxy]-benzyl}-1-(2,3-dihydro-benzo[1,4]oxazin-4-yl)-propan-1-one], the inhibition at 1 µM came out at 73.5%.

On to `NCC(Cc1ccc(OCCOc2ccc(Cl)cc2F)cc1)C(=O)N1CCCc2cc(F)ccc21` (stereo not shown) [Example 39, 3-Amino-2-{4-[2-(4-chloro-2-fluoro-phenoxy)-ethoxy]-benzyl}-1-(6-fluoro-3,4-dihydro-2H-quinolin-1-yl)-propan-1-one hydrochloride], for which, for the setting “compound concentration 0.1 μM”, the inhibition at 0.1 µM came out at 36.3%.

Regarding `Cc1cc(Cl)c(OCCCOc2ccc(CC(CN)C(=O)N3CCCc4ccccc43)cc2)c(Cl)c1` (stereo not shown) [Example 45, 2-Aminomethyl-3-{4-[3-(2,6-dichloro-4-methyl-phenoxy)-propoxy]-phenyl}-1-(3,4-dihydro-2H-quinolin-1-yl)-propan-1-one], the inhibition at 1 µM was determined as 97.1%. Besides, where the note is “compound concentration 0.1 μM”, the inhibition at 0.1 µM was found to be 18.7%.

For `Cc1cc(Cl)c(OCCOc2ccc(CC(CN)C(=O)N3CCCc4cc(Cl)ccc43)cc2)c(Cl)c1` (stereo not shown) [Example 5, 3-Amino-1-(6-chloro-3,4-dihydro-2H-quinolin-1-yl)-2-{4-[2-(2,6-dichloro-4-methyl-phenoxy)-ethoxy]-benzyl}-propan-1-one], the inhibition at 1 µM was found to be 79.6%.

For `Cc1cc(Cl)c(OCCOc2ccc(CC(CN)C(=O)N3CCCc4cc(OCC(F)(F)F)ccc43)cc2)c(Cl)c1` (stereo not shown) [Example 28, 3-Amino-2-{4-[2-(2,6-dichloro-4-methyl-phenoxy)-ethoxy]-benzyl}-1-[6-(2,2,2-trifluoro-ethoxy)-3,4-dihydro-2H-quinolin-1-yl]-propan-1-one hydrochloride], for the setting “compound concentration 0.1 μM”, the inhibition at 0.1 µM is 73.8%.

As to `NCC(Cc1ccc(OCCOc2ccc(F)cc2F)cc1)C(=O)N1CCCc2cc(C(F)(F)F)ccc21` (stereo not shown) [Example 36, 3-Amino-2-{4-[2-(2,4-difluoro-phenoxy)-ethoxy]-benzyl}-1-(6-trifluoromethyl-3,4-dihydro-2H-quinolin-1-yl)-propan-1-one hydrochloride], the inhibition at 0.1 µM (compound concentration 0.1 μM) is 45%.

For `Cc1cc(Cl)c(OCCOc2ccc(CC(CN)C(=O)N3CCCC3)cc2)c(Cl)c1` (stereo not shown) [Example 23, 3-Amino-2-{4-[2-(2,6-dichloro-4-methyl-phenoxy)-ethoxy]-benzyl}-1-pyrrolidin-1-yl-propan-1-one], the inhibition at 1 µM is 81.1%. The inhibition at 0.1 µM (compound concentration 0.1 μM) came out at 59.5%.

As for `NCC(Cc1ccc(OCCOc2c(F)cccc2F)cc1)C(=O)N1CCCc2cc(F)ccc21` (stereo not shown) [Example 35, 3-Amino-2-{4-[2-(2,6-difluoro-phenoxy)-ethoxy]-benzyl}-1-(6-fluoro-3,4-dihydro-2H-quinolin-1-yl)-propan-1-one hydrochloride], the inhibition at 0.1 µM (compound concentration 0.1 μM) is 26.3%.

Take `NCC(Cc1ccc(OCCOc2ccc(Cl)cc2Cl)cc1)C(=O)N1CCCc2cc(F)ccc21` (stereo not shown) [Example 37, 3-Amino-2-{4-[2-(2,4-dichloro-phenoxy)-ethoxy]-benzyl}-1-(6-fluoro-3,4-dihydro-2H-quinolin-1-yl)-propan-1-one hydrochloride]: under “compound concentration 0.1 μM”, the inhibition at 0.1 µM is 36.4%.

As to `Cc1cc(Cl)c(OCCOc2ccc(CC(CN)C(=O)N3CCCc4cc(F)ccc43)cn2)c(Cl)c1` (stereo not shown) [Example 44, 3-Amino-2-{6-[2-(2,6-dichloro-4-methyl-phenoxy)-ethoxy]-pyridin-3-ylmethyl}-1-(6-fluoro-3,4-dihydro-2H-quinolin-1-yl)-propan-1-one hydrochloride], the inhibition at 1 µM is 96.3%. Moreover, the inhibition at 0.1 µM (compound concentration 0.1 μM) was found to be 63.1%.
